Measurements from patent publication US20100056525A1, “5- AND 6- SUBSTITUTED BENZIMIDAZOLE THIOPHENE COMPOUNDS” (priority 2006, published 2010).

Legend:
[1] = molecular target: T1, PLK1 kinase domain (Homo sapiens, UniProt P53350); assay: Assay for Inhibition of PLK1 (SPA, 33P-ATP); assay type: biochemical; settings: 2 nM PLK1 kinase domain, 1 μM ATP, 22° C.; read-out: PLK1 pIC50 (converted)
T1 construct: made in house; host or cells: baculovirus infected T. ni cells
Procedure: A. Preparation of 6× N-Terminal His-Tagged PLK Kinase Domain
All procedures were performed at 4° C. Cells were lysed in 50 mM HEPES, 200 mM NaCl, 50 mM imidazole, 5% glycerol; pH 7.5. The homogenate was centrifuged at 14K rpm in a SLA-1500 rotor for 1 hr and the supernatant filtered through a 1.2 micron filter. The supernatant was loaded onto a Nickel chelating Sepharose (Amersham Pharmacia) column and washed with lysis buffer. Protein was eluted using 20%, 30% and 100% buffer B steps where buffer B was 50 mM HEPES, 200 mM NaCl, 300 mM imidazole, 5% glycerol; pH 7.5. Fractions containing PLK were determined by SDS-PAGE. Fractions containing PLK were diluted five-fold with 50 mM HEPES, 1 mM DTT, 5% glycerol; pH 7.5, then loaded on an SP Sepharose (Amersham Pharmacia) column. After washing the column with 50 mM HEPES, 1 mM DTT, 5% glycerol; pH 7.5, PLK was step eluted with 50 mM HEPES, 1 mM DTT, 500 mM NaCl; 5% glycerol; pH 7.5. PLK was concentrated using a 10 kDa molecular weight cutoff membrane and then loaded onto a Superdex 200 gel filtration (Amersham Pharmacia) column equilibrated in 25 mM HEPES, 1 mM DTT, 500 mM NaCl, 5% glycerol; pH 7.5. Fractions containing PLK were determined by SDS-PAGE. PLK was pooled, aliquoted and stored at −80° C. Samples were quality controlled using mass spectrometry, N-terminal sequencing and amino acid analysis.
B. Enzyme Activity +/− Inhibitors was Determined as Follows:
All measurements were obtained under conditions where signal production increased linearly with time and enzyme. Test compounds were added to white 384-well assay plates (0.1 μL for 10 μL and some 20 μL assays, 1 μL for some 20 μL assays) at variable known concentrations in 100% DMSO. DMSO (1-5% final, as appropriate) and EDTA (65 mM in reaction) were used as controls.
Reaction Mix (10 or 20 μL) was quickly added to each well immediately following addition of enzyme via automated liquid handlers and incubated 1-1.5 h at 22° C. The 20 μL enzymatic reactions were stopped with 50 μL of stop mix (50 mM EDTA, 4.0 mg/mL Streptavidin SPA beads in Standard Dulbecco's PBS (without Mg^2+ and Ca^2+), 50 μM ATP) per well. The 10 μL reactions were stopped with 10 μL of stop mix (50 mM EDTA, 3.0 mg/mL Streptavidin-coupled SPA Imaging Beads (“LeadSeeker”) in Standard Dulbecco's PBS (without Mg^2+ and Ca^2+), 50 μM ATP) per well. Plates were sealed with clear plastic seals, spun at 500×g for 1 min or settled overnight, and counted in Packard TopCount for 30 seconds/well (regular SPA) or imaged using a Viewlux imager (LeadSeeker SPA). Signal above background (EDTA controls) was converted to percent inhibition relative to that obtained in control (DMSO-only) wells.

[2] = test system: HCT-116 (human colon) cells; assay: Cell-Titer Glo Cell Growth Inhibition Assay; assay type: cell-based; settings: HCT-116 cells, 72 h incubation, CellTiter-Glo, read-out: HCT116 IC50
Procedure: A549-L (human lung), Colo 205 (human colon), HCT-116 (human colon), HT29 (human colon), MX-1 (human breast), SKOV3 (human ovary) and P388 (murine leukemia) cell lines were cultured in RPM11640 containing 10% fetal bovine serum at 37° C. in a 5% CO2 incubator. Cell lines were split into T75 flasks (Falcon #353136) two to three days prior to assay set up at density which yields approximately 70-80% confluency at time of harvest for assay. Cells were harvested using 0.25% trypsin with EDTA (Glibco/Invitrogen #25200-056), Cell counts were performed on cell suspensions using Trypan Blue exclusion staining, cells were then plated in 105 µL of culture media per well at the following densities in 96 well Costar #3916 black flat bottom plates: A549-L 500 cells/well, Colo205 500 cells/well, HCT-116 500 cells/well, HT29 500 cells/well, MX-1 500 cells/well, SKOV3 500 cells/well and P388 250 cells/well. All plates were placed at 5% CO2 37° C. overnight and then test compounds were added the following day. One plate of each cell type was treated with CellTiter-Glo (Promega #G7573) for a day 0 proliferation measurement and read as described below. The test compounds were prepared in clear U bottom polypropylene 96 well plates (Falcon #35-1190 with consecutive two fold dilutions. 9 uL of these dilutions was added into each well of the cell plates. The final concentration of DMSO in all wells was 0.15%. Cells were incubated at 37° C., 5% CO2 for 72 h. Following 72 h of incubation with compounds each plate was developed and read. CellTiter-Glo reagent was added to assay plates using a volume equivalent to the cell culture volume in the wells. Plates were shaken for approximately 2 min and incubated at rt for approximately 15 min and the chemiluminescent signal was read on the Victor V or Envison 2100 reader. […] Concentration of compound that inhibited 50% of cell growth (IC50) was analyzed by 4 or 6 parameter fit of data using XLfit, value of no cell addition was substracted from all samples for background.

T1 sequence (P53350 21-346): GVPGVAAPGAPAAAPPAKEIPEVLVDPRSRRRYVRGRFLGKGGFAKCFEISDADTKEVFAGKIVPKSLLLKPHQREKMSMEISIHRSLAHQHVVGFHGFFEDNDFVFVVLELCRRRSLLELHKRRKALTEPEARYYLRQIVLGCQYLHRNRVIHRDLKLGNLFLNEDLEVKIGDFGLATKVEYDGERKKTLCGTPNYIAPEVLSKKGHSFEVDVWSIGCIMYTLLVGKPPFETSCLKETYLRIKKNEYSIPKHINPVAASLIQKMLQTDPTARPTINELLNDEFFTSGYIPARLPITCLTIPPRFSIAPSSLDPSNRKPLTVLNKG

CNCCNc1ccc(-c2ccc3c(c2)ncn3-c2cc(O[C@H](C)c3ccccc3C(F)(F)F)c(C(N)=O)s2)cn1 [Example 26, 5-[5-(6-{[2-(methylamino)ethyl]amino}-3-pyridinyl)-1H-benzimidazol-1-yl]-3-({(1R)-1-[2-(trifluoromethyl)phenyl]ethyl}oxy)-2-thiophenecarboxamide]
IC50 [1]: < 100 nM
IC50 [2]: < 500 nM

C[C@@H](Oc1cc(-n2cnc3cc(-c4ccnc(N(C)CCCN(C)C)c4)ccc32)sc1C(N)=O)c1ccccc1C(F)(F)F [Example 8, 5-(5-{2-[[3-(Dimethylamino)propyl](methyl)amino]-4-pyridinyl}-1H-benzimidazol-1-yl)-3-({(1R)-1-[2-(trifluoromethyl)phenyl]ethyl}oxy)-2-thiophenecarboxamide]
IC50 [1]: < 100 nM
IC50 [2]: < 500 nM

C[C@@H](Oc1cc(-n2cnc3cc(-c4ccc(N(C)CCN(C)C)nc4)ccc32)sc1C(N)=O)c1ccccc1Cl [Example 27, 3-{[(1R)-1-(2-chlorophenyl)ethyl]oxy}-5-(5-[6-[[2-(dimethylamino)ethyl](methyl)amino]-3-pyridinyl]-1H-benzimidazol-1-yl)-2-thiophenecarboxamide]
IC50 [1]: < 100 nM
IC50 [2]: < 500 nM

C[C@@H](Oc1cc(-n2cnc3cc(-c4ccnc(NCCCN5CCN(C)CC5)c4)ccc32)sc1C(N)=O)c1ccccc1C(F)(F)F [Example 9, 5-[5-(2-{[3-(4-Methyl-1-piperazinyl)propyl]amino}-4-pyridinyl)-1H-benzimidazol-1-yl]-3-({(1R)-1-[2-(trifluoromethyl)phenyl]ethyl}oxy)-2-thiophenecarboxamide]
IC50 [1]: < 100 nM
IC50 [2]: < 500 nM

C[C@@H](Oc1cc(-n2cnc3cc(-c4cnc(NCCN5CCOCC5)nc4)ccc32)sc1C(N)=O)c1ccccc1Cl [Example 22, 3-{[(1R)-1-(2-chlorophenyl)ethyl]oxy}-5-[5-(2-{[2-(4-morpholinyl)ethyl]amino}-5-pyrimidinyl)-1H-benzimidazol-1-yl]-2-thiophenecarboxamide]
IC50 [1]: < 100 nM
IC50 [2]: < 500 nM

C[C@@H](Oc1cc(-n2cnc3cc(-c4ccnc(N(C)CCN(C)C)c4)ccc32)sc1C(N)=O)c1ccccc1C(F)(F)F [Example 7, 5-(5-{2-[[2-(Dimethylamino)ethyl](methyl)amino]-4-pyridinyl}-1H-benzimidazol-1-yl)-3-({(1R)-1-[2-(trifluoromethyl)phenyl]ethyl}oxy)-2-thiophenecarboxamide]
IC50 [1]: < 100 nM
IC50 [2]: < 500 nM

C[C@@H](Oc1cc(-n2cnc3cc(-c4ccc(NCCN(C)C)nc4)ccc32)sc1C(N)=O)c1ccccc1C(F)(F)F [Example 25, 5-[5-(6-{[2-(dimethylamino)ethyl]amino}-3-pyridinyl)-1H-benzimidazol-1-yl]-3-({(1R)-1-[2-(trifluoromethyl)phenyl]ethyl}oxy)-2-thiophenecarboxamide]
IC50 [1]: < 100 nM
IC50 [2]: < 500 nM

C[C@@H](Oc1cc(-n2cnc3cc(-c4ccnc(NCCCN5CCN(C)CC5)c4)ccc32)sc1C(N)=O)c1ccccc1Cl [Example 11, 3-{[(1R)-1-(2-chlorophenyl)ethyl]oxy}-5-[5-(2-{[3-(4-methyl-1-piperazinyl)propyl]amino}-4-pyridinyl)-1H-benzimidazol-1-yl]-2-thiophenecarboxamide]
IC50 [1]: < 100 nM
IC50 [2]: < 500 nM

C[C@@H](Oc1cc(-n2cnc3cc(-c4ccnc(NCCO)c4)ccc32)sc1C(N)=O)c1ccccc1Cl [Example 14, 3-{[(1R)-1-(2-chlorophenyl)ethyl]oxy}-5-(5-{2-[(2-hydroxyethyl)amino]-4-pyridinyl}-1H-benzimidazol-1-yl)-2-thiophenecarboxamide]
IC50 [2]: < 500 nM

C[C@@H](Oc1cc(-n2cnc3cc(-c4ccnc(NCCN(C)C)c4)ccc32)sc1C(N)=O)c1ccccc1C(F)(F)F [Example 1, 5-[5-(2-{[2-(Dimethylamino)ethyl]amino}-4-pyridinyl)-1H-benzimidazol-1-yl]-3-({(1R)-1-[2-(trifluoromethyl)phenyl]ethyl}oxy)-2-thiophenecarboxamide]
IC50 [2]: < 500 nM
